# Data: PubChem BioAssay AID206 (DTP/NCI, 2004)
# “And” between values parts separate entries of the source, which are not always exact repeats. Identical values can stand only once. Inconclusive results are not listed. Positions of bridges follow the written chain, without caps; N, C: chain ends. Non-standard residues stand in square brackets, D forms with d. Residues, ends and D or L forms follow the SMILES beside them. Chains are numbered I, II in the order given. *: point of attachment. Quinoxaline2carbonyl = O=C(c1cnc2ccccc2n1)*; NMeV = CN[CH](C(=O)O)C(C)C; NMeC = CN[CH](CS)C(=O)O
# System: nude mice, HT29 intrarenal xenograft, tumor weight T/C
# Assay: NCI In Vivo Anticancer Drug Screen. Data for tumor model HT29;CX-1 Human Adenocarcinoma (MER+) (intrarenal inoculation) in NU/NU Swiss (nude) mice
# Settings: endpoint: mean tumor weight change, higher = larger tumour
# How it was run: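 Tumor-bearing mice received test compound or vehicle, and tumor size or survival was recorded. Values are the treated-group measurement divided by the vehicle-treated control measurement.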
# [1] = dose: 50.0 mg/kg/injection, schedule: Q04DX004 (sc), vehicle: saline with Tween-80
# [2] = dose: 300.0 mg/kg/injection, schedule: Q04DX004 (sc), vehicle: saline with Tween-80
# [3] = dose: 600.0 mg/kg/injection, schedule: Q04DX004 (sc), vehicle: saline with Tween-80
# [4] = dose: 1200.0 mg/kg/injection, schedule: Q04DX004 (sc), vehicle: saline with Tween-80
# [5] = dose: 200.0 mg/kg/injection, schedule: Q01DX010 (sc), vehicle: saline
# [6] = dose: 50.0 mg/kg/injection, schedule: Q01DX010 (sc), vehicle: Klucel (hydroxypropylcellulose) (HPC)
# [7] = dose: 100.0 mg/kg/injection, schedule: Q01DX010 (sc), vehicle: Klucel (hydroxypropylcellulose) (HPC)
# [8] = dose: 150.0 mg/kg/injection, schedule: Q04DX004 (sc), vehicle: saline with Tween-80
structure (smiles),measurement,setting,value
O=C(Nc1ccccc1C(=O)O)c1cc([N+](=O)[O-])cc([N+](=O)[O-])c1,T/C,[1],91 % of control
same,T/C,"dose: 100.0 mg/kg/injection, schedule: Q04DX004 (sc), vehicle: saline with Tween-80",120 % of control
same,T/C,"dose: 200.0 mg/kg/injection, schedule: Q04DX004 (sc), vehicle: saline with Tween-80",119 % of control
COc1ccc2c(NCCCCCCNc3c4ccccc4nc4cc(OC)ccc34)c3ccccc3nc2c1,T/C,"dose: 0.62 mg/kg/injection, schedule: Q01DX010 (sc), vehicle: lactic acid",87 % of control
same,T/C,"dose: 1.25 mg/kg/injection, schedule: Q01DX010 (sc), vehicle: lactic acid",73 % of control
same,T/C,"dose: 2.5 mg/kg/injection, schedule: Q01DX010 (sc), vehicle: lactic acid",71 % of control
same,T/C,"dose: 30.0 mg/kg/injection, schedule: Q01DX010 (sc), vehicle: lactic acid",71 % of control
C1CN1c1nc(N2CC2)nc(N2CC2)n1,T/C,"dose: 0.25 mg/kg/injection, schedule: Q01DX010 (sc), vehicle: saline",213 % of control
[I][Hg][CH2]C1OCCOC1[CH2][Hg][I] (stereo not given),T/C,"dose: 300.0 mg/kg/injection, schedule: Q04DX004 (sc), vehicle: Klucel (hydroxypropylcellulose) (HPC)",81 % of control
same,T/C,"dose: 600.0 mg/kg/injection, schedule: Q04DX004 (sc), vehicle: Klucel (hydroxypropylcellulose) (HPC)",104 % of control
same,T/C,"dose: 1200.0 mg/kg/injection, schedule: Q04DX004 (sc), vehicle: Klucel (hydroxypropylcellulose) (HPC)",80 % of control
same,T/C,"dose: 2400.0 mg/kg/injection, schedule: Q04DX004 (sc), vehicle: Klucel (hydroxypropylcellulose) (HPC)",73 % of control
CCOC(=O)C(C)(C)Oc1ccc(Cl)cc1,T/C,[2],72 % of control
same,T/C,[3],70 % of control
same,T/C,[4],68 % of control
CSc1ccc2c(c1)C(N1CCN(C)CC1)Cc1ccccc1S2 (stereo not given),T/C,"dose: 12.5 mg/kg/injection, schedule: Q04DX004 (sc), vehicle: saline with Tween-80",80 % of control
same,T/C,"dose: 25.0 mg/kg/injection, schedule: Q04DX004 (sc), vehicle: saline with Tween-80",98 % of control
same,T/C,[1],124 % of control
COC1C(CO)OC(n2cnc3c(=S)nc(N)[nH]c32)C1O (stereo not given),T/C,"dose: 150.0 mg/kg/injection, schedule: Q04DX004 (sc), vehicle: Klucel (hydroxypropylcellulose) (HPC)",116 % of control
CC1(C)OC(=O)N(CO)C1=O,T/C,"dose: 25.0 mg/kg/injection, schedule: Q01DX010 (sc), vehicle: saline",95 % of control
same,T/C,"dose: 50.0 mg/kg/injection, schedule: Q01DX010 (sc), vehicle: saline",118 % of control
same,T/C,[5],194 % of control
CN1N=C(N)c2cn(C3OC(COP(=O)(O)O)C(O)C3O)c3ncnc1c23 (stereo not given),T/C,"dose: 25.0 mg/kg/injection, schedule: Q01DX010 (sc), vehicle: water",156 % of control
same,T/C,"dose: 50.0 mg/kg/injection, schedule: Q01DX010 (sc), vehicle: water",182 % of control
CSC1SCC2C(=O)N(C)C(C(C)C)C(=O)OCC(NC(=O)c3cnc4ccccc4n3)C(=O)NC(C)C(=O)N(C)C1C(=O)N(C)C(C(C)C)C(=O)OCC(NC(=O)c1cnc3ccccc3n1)C(=O)NC(C)C(=O)N2C (stereo not given),T/C,"dose: 30.0 micrograms/kg/injection, schedule: Q01DX010 (sc), vehicle: suspension in saline",88 % of control
same,T/C,"dose: 60.0 micrograms/kg/injection, schedule: Q01DX010 (sc), vehicle: saline",49 % of control
same,T/C,"dose: 120.0 micrograms/kg/injection, schedule: Q01DX010 (sc), vehicle: saline",35 % of control
same,T/C,"dose: 240.0 micrograms/kg/injection, schedule: Q01DX010 (sc), vehicle: saline",12 % of control
C[C@]12C=CC(=O)C=C1CC[C@@H]1[C@@H]2[C@@H](O)C[C@@]2(C)[C@H]1CC[C@]2(O)C(=O)CO,T/C,"dose: 12.5 mg/kg/injection, schedule: Q01DX010 (sc), vehicle: Klucel (hydroxypropylcellulose) (HPC)",79 % of control
same,T/C,"dose: 25.0 mg/kg/injection, schedule: Q01DX010 (sc), vehicle: Klucel (hydroxypropylcellulose) (HPC)",112 % of control
same,T/C,[6],66 % of control
same,T/C,[7],83 % of control
CC(C)[C@](O)(C(=O)OCC1=CC[N+]2([O-])CC[C@@H](O)[C@@H]12)[C@H](C)O (stereo not given in full),T/C,"dose: 100.0 mg/kg/injection, schedule: Q01DX010 (sc), vehicle: water",38 % of control
same,T/C,"dose: 200.0 mg/kg/injection, schedule: Q01DX010 (sc), vehicle: water",48 % of control
same,T/C,"dose: 400.0 mg/kg/injection, schedule: Q01DX010 (sc), vehicle: water",36 % of control
same,T/C,"dose: 800.0 mg/kg/injection, schedule: Q01DX010 (sc), vehicle: water",44 % of control
"CC1NC(=O)C(NC(=O)c2cnc3ccccc3n2)COC(=O)C(C(C)C)N(C)C(=O)C2CSSCC(C(=O)N(C)C(C(C)C)C(=O)OCC(NC(=O)c3cnc4ccccc4n3)C(=O)NC(C)C(=O)N2C)N(C)C1=O (stereo not given) (I: Quinoxaline2carbonyl-SA[NMeC][NMeV] / II: Quinoxaline2carbonyl-SA[NMeC][NMeV]; ester I:1-II:C, I:C-II:1; disulfide I:3-II:3; configuration not given here)",T/C,"dose: 100.0 mg/kg/injection, schedule: Q04DX004 (sc), vehicle: Klucel (hydroxypropylcellulose) (HPC)",115 % of control
same,T/C,"dose: 200.0 mg/kg/injection, schedule: Q04DX004 (sc), vehicle: Klucel (hydroxypropylcellulose) (HPC)",96 % of control
same,T/C,"dose: 400.0 mg/kg/injection, schedule: Q04DX004 (sc), vehicle: Klucel (hydroxypropylcellulose) (HPC)",74 % of control
O=C1NC(O)c2ccccc2O1 (stereo not given),T/C,"dose: 100.0 mg/kg/injection, schedule: Q04DX004 (sc), vehicle: suspension in saline",68 % of control
same,T/C,"dose: 200.0 mg/kg/injection, schedule: Q04DX004 (sc), vehicle: suspension in saline",115 % of control
same,T/C,"dose: 400.0 mg/kg/injection, schedule: Q04DX004 (sc), vehicle: suspension in saline",50 % of control
same,T/C,"dose: 800.0 mg/kg/injection, schedule: Q04DX004 (sc), vehicle: suspension in saline",55 % of control
CCC(C(=O)O)C(=O)O.[NH2-].[NH2-].[Pt+2],T/C,"dose: 75.0 mg/kg/injection, schedule: Q04DX004 (sc), vehicle: saline",92 % of control
same,T/C,"dose: 150.0 mg/kg/injection, schedule: Q04DX004 (sc), vehicle: saline",50 % of control
NCCc1ccc(O)c(O)c1,T/C,[5],78 % of control
C=C1C(=O)C2=CC1CCC(=O)C1(C)CCC(OC(C)=O)C(C)(C)C1CC2O (stereo not given),T/C,"dose: 60.0 mg/kg/injection, schedule: Q04DX004 (sc), vehicle: Klucel (hydroxypropylcellulose) (HPC)",91 % of control
same,T/C,"dose: 120.0 mg/kg/injection, schedule: Q04DX004 (sc), vehicle: Klucel (hydroxypropylcellulose) (HPC)",116 % of control
CCN(CC)Cc1cc2[nH]c3c4ccc(Cl)cc4ncc3c2cc1OC,T/C,"dose: 37.5 mg/kg/injection, schedule: Q04DX004 (sc), vehicle: saline with Tween-80",187 % of control
same,T/C,[8],161 % of control
same,T/C,[2],94 % of control
COC(=O)[C@@]12OC[C@]34[C@H]([C@@H](O)[C@@H]1O)[C@@]1(C)CC(=O)C(O)=C(C)[C@@H]1C[C@H]3OC(=O)[C@H](OC(=O)/C=C(\C)C(C)C)[C@@H]24,T/C,"dose: 0.25 mg/kg/injection, schedule: Q04DX004 (sc), vehicle: saline + alcohol",67 % of control
same,T/C,"dose: 0.5 mg/kg/injection, schedule: Q04DX004 (sc), vehicle: saline with Tween-80",83 % of control
same,T/C,"dose: 1.0 mg/kg/injection, schedule: Q04DX004 (sc), vehicle: saline + alcohol",49 % of control and 62 % of control
same,T/C,"dose: 1.0 mg/kg/injection, schedule: Q04DX004 (sc), vehicle: saline with Tween-80",89 % of control
same,T/C,"dose: 2.0 mg/kg/injection, schedule: Q04DX004 (sc), vehicle: saline + alcohol",53 % of control and 65 % of control
same,T/C,"dose: 4.0 mg/kg/injection, schedule: Q04DX004 (sc), vehicle: saline + alcohol",72 % of control
Cc1ccc2c(ccc(CC(=S)[S-])[n+]2C)c1,T/C,[6],96 % of control
same,T/C,[7],85 % of control
same,T/C,"dose: 200.0 mg/kg/injection, schedule: Q01DX010 (sc), vehicle: Klucel (hydroxypropylcellulose) (HPC)",44 % of control
same,T/C,"dose: 400.0 mg/kg/injection, schedule: Q01DX010 (sc), vehicle: Klucel (hydroxypropylcellulose) (HPC)",67 % of control
CN=C(N)N/N=C(\C)c1ccc2c(c1)Cc1ccccc1-2,T/C,[8],116 % of control
same,T/C,[2],91 % of control
same,T/C,[3],46 % of control
same,T/C,[4],81 % of control
CCOC(=O)C(N)CSC(=O)NC (stereo not given),T/C,"dose: 100.0 mg/kg/injection, schedule: Q04DX004 (sc), vehicle: saline",92 % of control
same,T/C,"dose: 200.0 mg/kg/injection, schedule: Q04DX004 (sc), vehicle: saline",96 % of control
same,T/C,"dose: 400.0 mg/kg/injection, schedule: Q04DX004 (sc), vehicle: saline",103 % of control
same,T/C,"dose: 800.0 mg/kg/injection, schedule: Q04DX004 (sc), vehicle: saline",62 % of control
CC1OC(=O)C(C(C)C)NC(=O)C(C(C)C)OC(=O)C(C(C)C)NC(=O)C(C)OC(=O)C(C(C)C)NC(=O)C(C(C)C)OC(=O)C(C(C)C)NC(=O)C(C)OC(=O)C(C(C)C)NC(=O)C(C(C)C)OC(=O)C(C(C)C)NC1=O (stereo not given),T/C,"dose: 5.0 mg/kg/injection, schedule: Q01DX010 (sc), vehicle: saline with Tween-80",87 % of control and 103 % of control
